Source: publication PMC3532212 (PLoS ONE, 2012)

Experiments:
[1] = Plasma concentrations during escalating i.v. infusion in anesthetized rats; format: in vivo; conditions: male, Sprague Dawley, plasma, iv, anesthetized rat, FTY720 i.v.
Method: The cardiovascular effects of FTY720 and BAF312 were tested in anesthetized rats (180–200 g). In brief, male Sprague Dawley rats (Charles River) were anesthetized with Inactin (110 mg/kg i.p.) and a tracheotomy performed. The femoral artery and veins were catheterized for measurement of mean arterial pressure and heart rate, collection of blood samples at 20-min intervals (0.2 mL/sample), and for compound infusion/hydration as previously described, [24]; blood samples were also withdrawn in vehicle-treated control rats. FTY720, infused as a hydrochloride salt (0.1, 0.3, 1.0 mg/kg/20-min free base equivalent solubilized in a 100% PEG-400 vehicle), or BAF312 (0.5, 1.5, 5.0 mg/kg/20-min solubilized in a 100% PEG-400 vehicle) were administered via three escalating 20-min infusions (0.011 mL/min) followed by a 1-hr post-treatment period. A blood sample was withdrawn at 20, 40, 60, and 120-minutes for analysis of plasma concentrations of the parent compound, and in the case of FTY720, also the phosphorylated metabolite, (S)-FTY720-P. Statistical significance (p<0.05) was based on a t-test comparing treatment change from baseline (baseline was defined as the period from −30 to 0 minutes) vs. vehicle controls change from baseline at each timepoint without adjustment for multiple comparisons. In a separate group of anesthetized rats in which left ventricular (LV) contractility was also recorded with a Millar pressure transducer introduced into the left ventricle, BAF312 was infused in the same dosing regimen as the studies described above (0.5, 1.5, 5.0 mg/kg/20-min solubilized in a 100% PEG-400 vehicle) and effects on LV dP/dtmax were recorded.

[2] = system: conscious, telemetry-instrumented rats; experiment: Telemetry-instrumented conscious rats, single oral dose hemodynamics; format: in vivo; conditions: conscious rat; for mean arterial pressure above baseline, 24-hr mean: vehicle 3.6±1.5
Method: (§1) Mean arterial pressure was assessed in conscious, freely moving male Sprague Dawley rats (n = 6–8/group; Charles River) instrumented with telemetry transmitters (DSI-Ponemah) and housed in metabolism cages as previously described, [26]. Tested compounds were solubilized in a 0.5% Methylcellulose/0.015% Tween 80 vehicle that was also dosed alone (p.o./QD, 5 mL/kg) as a control in the study. FTY720 was administered p.o. at 0.3, 1.0, 3.0, 10.0 mg/kg p.o. as a single dose or p.o./QD at 0.5, 1.5, and 5.0 mg/kg in a chronic study. BAF312 was administered p.o/QD at 0.3, 3.0, and 30 mg/kg as a single dose and in a chronic study. Mean arterial pressure and heart rate are shown as 1-hr and/or 24-hr mean values±SEM as described in the results. Blood samples in satellite rats were withdrawn at various timepoints as described in the results for analysis of plasma concentrations of the parent compound and, in the case of FTY720, also the phosphorylated metabolite, (S)-FTY720-P. Statistical analysis for the single-dose acute studies was based on one-way ANOVA to compare the treatment groups vs. vehicle for each time period after dosing (0–24 hrs, 24–48 hrs, and 48–72 hrs); statistical significance (p<0.05) was detected by Dunnett’s post-hoc test to compare treatment with vehicle controls. The statistical analysis in the chronic studies were based on one-way ANOVA with repeated measures to compare the treatment arms; statistical significance (p<0.05) was detected by Dunnett’s post-hoc test to compare treatment with vehicle controls.

[3] = Plasma concentrations in repeat-dosing study, satellite rats; format: in vivo, rat; conditions: for concentration at 0 h / concentration at 4 h / concentration at 8 h / concentration at 24 h: male, Sprague Dawley, rat, plasma, po, mean±SEM; for Plasma concentration at Tmax / Terminal plasma concentration at Tmax: satellite rats; for Plasma concentration at Tmax: day 1; for Terminal plasma concentration at Tmax: last day of study
Method: as §1

[4] = CSF concentrations after a single oral dose of FTY720, satellite rats; format: in vivo, rat; conditions: FTY720 3.0 or 10 mg/kg single oral dose, 4, 8, 24, 72-hrs post-dose
Method: Prior to longer-term hypertension studies with FTY720 an acute, single oral-dose study was performed to define the lower and upper limits of a pharmacologically-active dose with respect to acute hemodynamic effects. […] Values of both the parent and metabolite were detectable through at least 72-hrs post-dose. Tissue concentrations in the brain, skeletal muscle, and CSF were also determined in a separate group of satellite rats (please see Supplementary Figure, S2 ). Relative to the vehicle control group, FTY720 elicited dose-dependent and sustained increases in mean arterial pressure after a single oral dose, an effect that reached statistical significance in the 3 and 10 mg/kg dose groups (to 13.5±1.8 and 19.9±2.8 mmHg above baseline, respectively, based on a 24-hr mean values on day 1 vs. 3.6±1.5 mmHg in vehicle controls, Figure 4 , A). […] The acute hemodynamic effects of a single oral dose of BAF312 (0.3, 3.0, and 30 mg/kg) were also quantified.
A blood sample or tissues were harvested from satellite rats at 4, 8, 24, and 72-hrs post-dose. […] (TIF) Click here for additional data file.

- concentration at 20 min ([1]; end of 0.1 mg/kg/20 min infusion): 54 ± 9 nM
- concentration at 40 min ([1]; end of 0.3 mg/kg/20 min infusion): 198 ± 13 nM
- concentration at 60 min ([1]; end of 1.0 mg/kg/20 min infusion): 375 ± 46 nM
- concentration at 120 min ([1]; end of 60-min post-treatment period): 121 ± 5 nM
- concentration at 0 h ([3]; 0.5 mg/kg/day, FTY720 0.5 mg/kg/d p.o., Terminal (last day)): 18 ± 2 nM
- concentration at 4 h ([3]; 0.5 mg/kg/day, FTY720 0.5 mg/kg/d p.o., Terminal (last day), 4 hr post-dose): 24 ± 3 nM
- concentration at 8 h ([3]; 0.5 mg/kg/day, FTY720 0.5 mg/kg/d p.o., Terminal (last day), 8 hr post-dose): 63 ± 37 nM
- concentration at 24 h ([3]; 0.5 mg/kg/day, FTY720 0.5 mg/kg/d p.o., Terminal (last day), 24 hr post-dose): 40 ± 27 nM
- concentration at 4 h ([3]; 0.5 mg/kg/day, FTY720 0.5 mg/kg/d p.o., Day 1, 4 hr post-dose): 9 ± 1 nM
- concentration at 8 h ([3]; 0.5 mg/kg/day, FTY720 0.5 mg/kg/d p.o., Day 1, 8 hr post-dose): 13 ± 2 nM
- concentration at 24 h ([3]; 0.5 mg/kg/day, FTY720 0.5 mg/kg/d p.o., Day 1, 24 hr post-dose): 8 ± 1 nM
- concentration at 0 h ([3]; 1.5 mg/kg/day, FTY720 1.5 mg/kg/d p.o., Terminal (last day)): 58 ± 7 nM
- concentration at 4 h ([3]; 1.5 mg/kg/day, FTY720 1.5 mg/kg/d p.o., Terminal (last day), 4 hr post-dose): 60 ± 6 nM
- concentration at 8 h ([3]; 1.5 mg/kg/day, FTY720 1.5 mg/kg/d p.o., Terminal (last day), 8 hr post-dose): 81 ± 4 nM
- concentration at 24 h ([3]; 1.5 mg/kg/day, FTY720 1.5 mg/kg/d p.o., Terminal (last day), 24 hr post-dose): 44 ± 5 nM
- concentration at 4 h ([3]; 1.5 mg/kg/day, FTY720 1.5 mg/kg/d p.o., Day 1, 4 hr post-dose): 45 ± 4 nM
- concentration at 8 h ([3]; 1.5 mg/kg/day, FTY720 1.5 mg/kg/d p.o., Day 1, 8 hr post-dose): 53 ± 9 nM
- concentration at 24 h ([3]; 1.5 mg/kg/day, FTY720 1.5 mg/kg/d p.o., Day 1, 24 hr post-dose): 34 ± 4 nM
- concentration at 0 h ([3]; 5 mg/kg/day, FTY720 5.0 mg/kg/d p.o., Terminal (last day)): 207 ± 27 nM
- concentration at 4 h ([3]; 5 mg/kg/day, FTY720 5.0 mg/kg/d p.o., Terminal (last day), 4 hr post-dose): 229 ± 21 nM
- concentration at 8 h ([3]; 5 mg/kg/day, FTY720 5.0 mg/kg/d p.o., Terminal (last day), 8 hr post-dose): 176 ± 37 nM
- concentration at 24 h ([3]; 5 mg/kg/day, FTY720 5.0 mg/kg/d p.o., Terminal (last day), 24 hr post-dose): 134 ± 21 nM
- concentration at 4 h ([3]; 5 mg/kg/day, FTY720 5.0 mg/kg/d p.o., Day 1, 4 hr post-dose): 98 ± 14 nM
- concentration at 8 h ([3]; 5 mg/kg/day, FTY720 5.0 mg/kg/d p.o., Day 1, 8 hr post-dose): 102 ± 4 nM
- concentration at 24 h ([3]; 5 mg/kg/day, FTY720 5.0 mg/kg/d p.o., Day 1, 24 hr post-dose): 17 ± 40 nM
- Plasma concentration at Tmax ([3]; FTY720 0.5 mg/kg/d p.o.): 13 ± 2 nM
- Terminal plasma concentration at Tmax ([3]; FTY720 0.5 mg/kg/d p.o.): 63 ± 37 nM
- Plasma concentration at Tmax ([3]; FTY720 1.5 mg/kg/d p.o.): 53 ± 9 nM
- Terminal plasma concentration at Tmax ([3]; FTY720 1.5 mg/kg/d p.o.): 81 ± 4 nM
- Plasma concentration at Tmax ([3]; FTY720 5.0 mg/kg/d p.o.): 120 ± 17 nM
- Terminal plasma concentration at Tmax ([3]; FTY720 5.0 mg/kg/d p.o.): 229 ± 21 nM
- concentration in the CSF [4]: No compound was detectable
Structure (SMILES): CCCCCCCCc1ccc(CCC(N)(CO)CO)cc1 [FTY720]
- mean arterial pressure above baseline, 24-hr mean ([2]; FTY720 3 mg/kg single oral dose, day 1): 13.5±1.8 mmHg
- mean arterial pressure above baseline, 24-hr mean ([2]; FTY720 10 mg/kg single oral dose, day 1): 19.9±2.8 mmHg
- heart rate change from baseline, 24-hr mean ([2]; FTY720 10 mg/kg single oral dose, day 1, vehicle 15±3): −13±6 beats/min
- changes in heart rate vs vehicle after day 1 ([2]; FTY720 single oral dose, after day 1 up to 72 hours): not different from vehicle control rats
